Laboratory results reported in PubChem BioAssay AID206 (DTP/NCI, 2004).
Where “and” joins values, the source holds several entries; their conditions need not be identical. Equal entries are not always repeated. Records with an inconclusive call do not appear.

System: nude mice, HT29 intrarenal xenograft, tumor weight T/C
Assay: NCI In Vivo Anticancer Drug Screen. Data for tumor model HT29;CX-1 Human Adenocarcinoma (MER+) (intrarenal inoculation) in NU/NU Swiss (nude) mice
Settings: endpoint: mean tumor weight change, higher = larger tumour
Outline: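 Endpoint measured as tumor size or survival; ratio reported is treated group over vehicle controls.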

With `O=C(NO)c1cc(O)c(O)c(O)c1` the T/C (dose: 200.0 mg/kg/injection, schedule: Q04DX004 (sc), vehicle: water) was 83 % of control, the T/C (dose: 400.0 mg/kg/injection, schedule: Q04DX004 (sc), vehicle: water) was 60 % of control and the T/C (dose: 800.0 mg/kg/injection, schedule: Q04DX004 (sc), vehicle: water) was 56 % of control. For the same compound, the T/C (dose: 1600.0 mg/kg/injection, schedule: Q04DX004 (sc), vehicle: water) was 71 % of control.
For `CNc1n[n+](-c2ccccc2)no1`, the T/C (dose: 37.5 mg/kg/injection, schedule: Q04DX004 (sc), vehicle: water) was 117 % of control and the T/C (dose: 75.0 mg/kg/injection, schedule: Q04DX004 (sc), vehicle: water) was 115 % of control.
`COC(=O)C12OCC34C(CC5C(C)=CC(=O)C(O)C5(C)C3C(O)C1O)OC(=O)C(OC(=O)CC(C)C)C24` (stereo unspecified) was tested, and the T/C (dose: 1.5 mg/kg/injection, schedule: Q04DX004 (sc), vehicle: saline + alcohol) was 59 % of control and the T/C (dose: 3.0 mg/kg/injection, schedule: Q04DX004 (sc), vehicle: saline + alcohol) was 76 % of control.
`CCCC(=O)O.CCCC(=O)O.CCCC(=O)O.CCCC(=O)O.[Rh].[Rh]` was tested, and the T/C (dose: 0.5 mg/kg/injection, schedule: Q04DX004 (sc), vehicle: suspension in saline) was 99 % of control, the T/C (dose: 1.0 mg/kg/injection, schedule: Q04DX004 (sc), vehicle: suspension in saline) was 75 % of control and the T/C (dose: 2.0 mg/kg/injection, schedule: Q04DX004 (sc), vehicle: suspension in saline) was 97 % of control. For the same compound, the T/C (dose: 4.0 mg/kg/injection, schedule: Q04DX004 (sc), vehicle: suspension in saline) was 155 % of control.
In the case of `Nc1nc(=O)n(C2OC(CO)C(O)C2O)cc1F` (stereo unspecified), the T/C (dose: 150.0 mg/kg/injection, schedule: Q04DX004 (ip), vehicle: saline) is reported as 122 % of control, the T/C (dose: 300.0 mg/kg/injection, schedule: Q04DX004 (ip), vehicle: saline) is reported as 56 % of control and the T/C (dose: 600.0 mg/kg/injection, schedule: Q04DX004 (ip), vehicle: saline) is reported as 83 % of control. The T/C (dose: 600.0 mg/kg/injection, schedule: Q04DX004 (sc), vehicle: saline) was 26 % of control, the T/C (dose: 1200.0 mg/kg/injection, schedule: Q04DX004 (ip), vehicle: saline) was 42 % of control and the T/C (dose: 1200.0 mg/kg/injection, schedule: Q04DX004 (sc), vehicle: saline) was 11 % of control.
With `O=c1[nH]cc(F)c(=O)[nH]1` the T/C (dose: 6.25 mg/kg/injection, schedule: Q01DX010 (sc), vehicle: saline) was 160 % of control, the T/C (dose: 12.5 mg/kg/injection, schedule: Q01DX010 (sc), vehicle: saline) was 101 % of control and the T/C (dose: 20.0 mg/kg/injection, schedule: Q01DX010 (sc), vehicle: saline) was 87 % of control and 107 % of control. For the same compound, the T/C (dose: 25.0 mg/kg/injection, schedule: Q01DX010 (sc), vehicle: saline) was 86 % of control, the T/C (dose: 40.0 mg/kg/injection, schedule: Q01DX010 (sc), vehicle: saline) was 46 % of control and the T/C (dose: 50.0 mg/kg/injection, schedule: Q04DX004 (ip), vehicle: saline) was 34 % of control. For the same compound, the T/C (dose: 75.0 mg/kg/injection, schedule: Q04DX004 (ip), vehicle: saline) was 23 % of control and the T/C (dose: 80.0 mg/kg/injection, schedule: Q01DX010 (sc), vehicle: saline) was 59 % of control.
With `O=C1NC(=O)NC(C(=O)O)N1` the T/C (dose: 50.0 mg/kg/injection, schedule: Q04DX004 (sc), vehicle: Klucel (hydroxypropylcellulose) (HPC)) was 101 % of control, the T/C (dose: 100.0 mg/kg/injection, schedule: Q04DX004 (sc), vehicle: Klucel (hydroxypropylcellulose) (HPC)) was 67 % of control and the T/C (dose: 200.0 mg/kg/injection, schedule: Q04DX004 (sc), vehicle: Klucel (hydroxypropylcellulose) (HPC)) was 114 % of control. For the same compound, the T/C (dose: 300.0 mg/kg/injection, schedule: Q04DX004 (sc), vehicle: Klucel (hydroxypropylcellulose) (HPC)) was 108 % of control, the T/C (dose: 400.0 mg/kg/injection, schedule: Q04DX004 (sc), vehicle: Klucel (hydroxypropylcellulose) (HPC)) was 91 % of control and the T/C (dose: 600.0 mg/kg/injection, schedule: Q04DX004 (sc), vehicle: Klucel (hydroxypropylcellulose) (HPC)) was 95 % of control. For the same compound, the T/C (dose: 1200.0 mg/kg/injection, schedule: Q04DX004 (sc), vehicle: Klucel (hydroxypropylcellulose) (HPC)) was 58 % of control.
With `Cc1cc(NCCCCCCCNc2cc(C)nc3cc(N)ccc23)c2ccc(N)cc2n1` the T/C (dose: 12.5 mg/kg/injection, schedule: Q04DX004 (sc), vehicle: saline with Tween-80) was 32 % of control, the T/C (dose: 25.0 mg/kg/injection, schedule: Q04DX004 (sc), vehicle: saline with Tween-80) was 56 % of control and the T/C (dose: 50.0 mg/kg/injection, schedule: Q04DX004 (sc), vehicle: saline with Tween-80) was 51 % of control.
